Reference: patent publication US20160272617A1, “SUBSTITUTED PHENYLALANINE DERIVATIVES” (BAYER PHARMA AKTIENGESELLSCHAFT, priority 2013, published 2016)
Structures can show the parent of a compound that is named as a salt.

Assays:
[1] = target: T1, human factor XIa (Homo sapiens, UniProt P03951); test: Measurement of FXIa inhibition (fluorogenic peptide substrate Boc-Glu(OBzl)-Ala-Arg-AMC); type: biochemical; details: factor XIa from Kordia, 15 min preincubation, 30 min at 22° C., fluorescence
T1 construct: purchased Kordia
T1 sequence (P03951 388-625 limits assumed): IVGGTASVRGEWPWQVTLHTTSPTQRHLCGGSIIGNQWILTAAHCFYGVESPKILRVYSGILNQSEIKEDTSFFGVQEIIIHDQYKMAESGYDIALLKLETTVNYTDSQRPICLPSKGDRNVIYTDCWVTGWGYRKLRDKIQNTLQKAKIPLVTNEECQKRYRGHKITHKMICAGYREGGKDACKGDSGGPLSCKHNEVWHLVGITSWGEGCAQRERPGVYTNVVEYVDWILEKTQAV
T1 sequence (P03951 19-387 partner limits assumed): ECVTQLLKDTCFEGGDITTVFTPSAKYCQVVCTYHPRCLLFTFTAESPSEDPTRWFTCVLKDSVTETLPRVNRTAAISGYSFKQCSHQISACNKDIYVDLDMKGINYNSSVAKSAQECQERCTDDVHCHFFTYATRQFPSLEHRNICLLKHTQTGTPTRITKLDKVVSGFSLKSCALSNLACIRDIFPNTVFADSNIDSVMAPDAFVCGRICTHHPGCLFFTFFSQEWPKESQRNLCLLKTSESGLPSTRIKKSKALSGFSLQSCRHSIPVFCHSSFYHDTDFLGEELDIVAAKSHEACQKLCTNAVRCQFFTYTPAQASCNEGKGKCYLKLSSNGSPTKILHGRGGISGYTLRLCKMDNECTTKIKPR
Procedure, shortened: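 Released AMC fluorescence (360/460 nm) read after 30 min at 22 °C. The reaction was started with Boc-Glu(OBzl)-Ala-Arg-AMC (10 μM stock) after a 15 min preincubation of the enzyme (0.45 nM stock) with compound (final 50 μM to 0.00013 μM).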

[2] = system: human and animal plasma; test: Determination of anticoagulatory activity: activated partial thromboplastin time (aPTT) in plasma; details: concentration of test substance which brings about a 1.5-fold extension of the aPTT; plasma species not given
Procedure, shortened: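 Citrated plasma (1:9, 0.11 M citrate; 4000 g, 15 min) from human or animal blood incubated with test compound and cephalin/kaolin PTT reagent for 3 min at 37° C.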

[3] = target: T2, human plasmin (Homo sapiens, UniProt P00747); test: Measurement of plasmin inhibition (fluorogenic peptide substrate MeOSuc-Ala-Phe-Lys-AMC); type: biochemical; details: plasmin from Kordia, 15 min preincubation, 30 min at 22° C., fluorescence
T2 construct: purchased Kordia
T2 sequence (P00747 581-810 limits assumed): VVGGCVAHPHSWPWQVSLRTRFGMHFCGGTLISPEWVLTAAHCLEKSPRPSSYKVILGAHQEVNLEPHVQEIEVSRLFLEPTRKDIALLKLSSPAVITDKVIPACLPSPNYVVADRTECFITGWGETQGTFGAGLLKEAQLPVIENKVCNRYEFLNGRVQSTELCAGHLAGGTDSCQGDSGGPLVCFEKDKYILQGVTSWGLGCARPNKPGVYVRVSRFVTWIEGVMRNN
T2 sequence (P00747 97-580 partner limits assumed): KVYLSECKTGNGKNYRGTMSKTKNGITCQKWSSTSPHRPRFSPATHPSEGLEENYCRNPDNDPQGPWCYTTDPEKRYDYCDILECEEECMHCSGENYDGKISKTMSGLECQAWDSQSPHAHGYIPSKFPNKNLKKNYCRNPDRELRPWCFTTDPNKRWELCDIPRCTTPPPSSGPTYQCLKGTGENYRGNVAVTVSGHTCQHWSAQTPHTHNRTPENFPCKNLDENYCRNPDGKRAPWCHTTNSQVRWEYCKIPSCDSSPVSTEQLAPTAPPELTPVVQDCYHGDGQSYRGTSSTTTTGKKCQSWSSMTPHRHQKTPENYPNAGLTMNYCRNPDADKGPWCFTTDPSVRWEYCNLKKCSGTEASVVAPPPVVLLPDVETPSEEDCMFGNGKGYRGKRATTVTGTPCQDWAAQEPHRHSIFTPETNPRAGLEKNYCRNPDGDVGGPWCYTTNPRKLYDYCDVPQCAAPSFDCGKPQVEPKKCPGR
Description: The plasmin inhibition of the inventive substances is determined using a biochemical test system which utilizes the reaction of a peptidic plasmin substrate to determine the enzymatic activity of human plasmin. Here, plasmin cleaves from the peptic plasmin substrate the C-terminal aminomethylcoumarin (AMC), the fluorescence of which is measured. The determinations are carried out in microtitre plates.
Test substances are dissolved in dimethyl sulphoxide and serially diluted in dimethyl sulphoxide (3000 μM to 0.0078 μM; resulting final concentrations in the test: 50 μM to 0.00013 μM). In each case 1 μl of the diluted substance solutions are placed into the wells of white microtitre plates from Greiner (384 wells). Subsequently, the following are added successively: 20 μl of assay buffer (50 mmol/Tris buffer pH 7.4; 100 mmol/l sodium chloride; 5 mmol/calcium chloride; 0.1% bovine serum albumin) and 20 μl of plasmin from Kordia (0.3 μg/ml in assay buffer) are then added successively. After 15 min of incubation, the enzyme reaction is started by addition of 20 μl of the plasmin substrate MeOSuc-Ala-Phe-Lys-AMC dissolved in assay buffer (150 μM in assay buffer) from Bachem, the mixture is incubated at room temperature (22° C.) for 30 min and fluorescence is then measured (excitation: 360 nm, emission: 460 nm). The measured emissions of the test batches with test substance are compared to those of control batches without test substance (only dimethyl sulphoxide instead of test substance in dimethyl sulphoxide), and the IC50 values are calculated from the concentration/activity relationships.

SMILES | IC50 [1] [nM] | aPTT [2] [µmol/L] | IC50 [3] [nM]
Cc1cc(C(=O)N2CCC3CNC(=O)C32)ccc1-c1ccc(C[C@H](NC(=O)[C@H]2CC[C@H](CN)CC2)C(=O)Nc2ccc3cn[nH]c3c2)cc1 (stereo partly drawn) [Example 163, trans-4-(Aminomethyl)-N-[(2S)-1-(1H-indazol-6-ylamino)-3-{2′-methyl-4′-[(6-oxohexahydropyrrolo[3,4-b]pyrrol-1(2H)-yl)carbonyl]biphenyl-4-yl}-1-oxopropan-2-yl]cyclohexanecarboxamide hydrochloride] | 10 | 0.07 | 8.8
Cc1cc(C(=O)NC2CC(O)C2)ccc1-c1ccc(C[C@H](NC(=O)[C@H]2CC[C@H](CN)CC2)C(=O)Nc2ccc3cn[nH]c3c2)cc1 (stereo partly drawn) [Example 164, 4′-[(2S)-2-({[trans-4-(Aminomethyl)cyclohexyl]carbonyl}amino)-3-(1H-indazol-6-ylamino)-3-oxopropyl]-N-(3-hydroxycyclobutyl)-2-methylbiphenyl-4-carboxamide hydrochloride] | 7.6 | 0.13 | 13
Cc1cc(C(=O)NC2CC2)ccc1-c1ccc(C[C@H](NC(=O)[C@H]2CC[C@H](CN)CC2)C(=O)Nc2ccc3cn[nH]c3c2)cc1 [Example 167, 4′-[(2S)-2-({[trans-4-(Aminomethyl)cyclohexyl]carbonyl}amino)-3-(1H-indazol-6-ylamino)-3-oxopropyl]-N-cyclopropyl-2-methylbiphenyl-4-carboxamide hydrochloride] | 6 | 0.12 | 1.9
